From US20120302609A1, “Pyrazolines for the Modulation of PKM2” (Dynamix Pharmaceuticals LTD., priority 2011, published 2012)

Legend:
[1] = biological target: T1, PKM2, human recombinant (Homo sapiens, UniProt P14618); assay: PKM2 enzymatic activity assay (Kinase-Glo Plus luminescence); assay type: biochemical; conditions: for AC50: 0.1 nM PKM2, 0.1 mM ADP, 0.5 mM PEP, 1 hour, room temperature, read-out: AC50 group; for Emax: 1 h, read-out: Max activity Group; for Emax / Max activity Group: maximum percent activity, luminescence without compound = 0% activity;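 as to Max activity Group: percent increase over no-compound signal after subtracting the no-PKM2 background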
T1 construct: purchased BPS 50295
Procedure: PKM2 performs the following enzymatic reaction, where the PKM2 substrates, PEP (phosphoenolpyruvate) and ADP, are converted to pyruvate and ATP as follows:
All of the enzymatic reactions were conducted in duplicates at room temperature for 1 hour in a 50 μL mixture containing: • PKM2 assay buffer (50 mM Imidazole, pH 7.2; 7 mM MgCl2; 50 mM KCl; 0.01% Tween; • and 0.05% BSA), 0.1 mM ADP, 0.5 mM PEP, 0.1 nM PKM2 enzyme (PKM2, human recombinant (BPS catalog number 50295)) and the indicated test compound. Fructose 1,6 biphosphat e, (FBP (Sigma)) was used as a positive control for activation at concentration of 0.5 mM. After enzymatic reactions, 50 μL of Kinase-Glo® Plus reagent (Promega kit) was added to each well and luminescence was measured using a BioTek Synergy™ 2 microplate reader.
PKM2 activity assays were performed in duplicates at each concentration. The luminescence data were analyzed using the computer software, GraphPad PRISM®. In the absence of the compound, the luminescence was defined as 0% activity. The percent activity in the presence of each compound was calculated according to the following equation:
% Activity=[(L−Lb)/(Lt−Lb)−1]×100%
where L=the luminescence in the presence of the test compound, Lb=the luminescence in the absence of PKM2, and Lt=the luminescence intensity in the absence of the test compound. The % activity values versus a series of compound concentrations were plotted using non-linear regression analysis of Sigmoidal dose-response curve generated with the equation Y=B+(T−B)/1+10^((LogEC50-X)×Hill Slope), where Y=percent activity, B=minimum percent activity, T=maximum percent activity, X=logarithm of compound and Hill Slope=slope factor or Hill coefficient. The AC50 values, shown in Table 2 were determined for the indicated test compounds as the concentration causing a half-maximal percent activity.

[2] = tested on: H1299 (lung); assay: Cell proliferation assay (CellTiter-Glo Luminescent); assay type: cell-based, human; conditions: 96 hr
Procedure: 1. Cells were grown according to the ATCC conditions. 2. Cell feeding (passaging) was timed such that the cells were in exponential growth phase at the time of the assay.
3. On day 1, H1299 cells were counted. Cell numbers were adjusted to the desired cell concentration in Media 1: RPMI 1640 Invitrogen 11879020 (that contained no glucose or pyruvate) with 10% FBS, and 1 mM D-Glucose (4 μl of 2.5 M D-glucose G8769 was added in preparing 10 ml RPMI media with 1 mM glucose). A 200 μl of H1299 cell suspension was added to appropriate wells in the 96-well plates, and incubated at 37° C. in the CO2 cell incubator under normal growing conditions for overnight. 4. On day 2, a 100 mM stock concentration of test compounds in 100% DMSO was prepared and serially diluted with 100% DMSO to 33.33 mM, 11.11 mM, and 3.7 mM. A 1:1000 dilution was made to each concentration in media 1 (yielding 0.1% final DMSO concentration). The media was aspirated completely from the cell plate. Each 100 μl of the following solutions (100 μM, 33.33 μM, 11.11 μM, and 3.7 μM) was added to the cells. DMSO in a final concentration of 0.1%, and media without DMSO, were added to the cells and used as a negative control. Empty wells around the experimental wells were filled with PBS. The plate was sealed with parafilm to reduce evaporation. 5. The plate was incubated under normal conditions (5% CO2, and 95% air), for 96 hours at 37° C. 6. On day 6 (after 96 hr incubation), the plate was equilibrated to room temperature for approximately 30 minutes. A 100 μl of CellTiter-Glo Reagent was added in each well of the plate. Contents were mixed for 2 minutes on an orbital shaker to induce cell lysis. The plate was incubated at room temperature for 10 minutes to stabilize luminescent signal. Luminescence was recorded with Flexstation 3.
Unless noted otherwise, proliferation of control or compound treated H1299 cells was measured using CellTiter-Glo Luminescent assay following 96 hr incubation of the cells with and without test compounds. The AC50 values, shown in Table 3, were coded according to follows: A: <3 μM; B: 3-10 μM; C: 10-20 μM; or D: >20 μM.

[3] = tested on: 786-O (kidney); assay: as above; assay type: cell-based; conditions: Homo sapiens, 786-0, 1 mM glucose, 96 hr
[4] = Homo sapiens, NCI-H1299, 1 mM glucose

T1 sequence (P14618 whole entry): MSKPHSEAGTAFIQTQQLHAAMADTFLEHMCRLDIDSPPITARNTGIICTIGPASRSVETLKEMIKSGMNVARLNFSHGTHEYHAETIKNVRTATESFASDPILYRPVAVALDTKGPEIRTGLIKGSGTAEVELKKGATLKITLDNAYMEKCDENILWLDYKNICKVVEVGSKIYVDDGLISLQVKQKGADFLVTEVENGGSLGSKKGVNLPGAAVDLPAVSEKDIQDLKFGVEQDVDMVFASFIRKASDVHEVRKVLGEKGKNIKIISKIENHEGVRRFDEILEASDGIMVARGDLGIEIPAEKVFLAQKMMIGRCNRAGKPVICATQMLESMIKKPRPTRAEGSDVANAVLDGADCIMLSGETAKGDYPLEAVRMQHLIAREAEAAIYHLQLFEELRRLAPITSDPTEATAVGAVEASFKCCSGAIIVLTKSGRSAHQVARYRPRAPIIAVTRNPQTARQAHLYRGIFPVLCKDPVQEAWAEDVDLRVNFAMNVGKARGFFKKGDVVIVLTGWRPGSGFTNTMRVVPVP

AC50 [1]	Emax [1]	Max activity Group [1]	Structure (SMILES)	AC50 [2, 4]	AC50 [3]	AC50 ([2]; 1 mM glucose)	AC50 ([2]; Complete media)
≤ 1 µM	130 to 200%		COc1ccc(C2CC(c3ccc(NS(=O)(=O)c4cccc(OC)c4)cc3)=NN2C(C)=O)cc1 (racemic) [Compound 18A, N-(4-(1-Acetyl-5-(4-methoxyphenyl)-4,5-dihydro-1H-pyrazol-3-yl)phenyl)-3-methoxy benzenesulfonamide]	> 20 µM			
≤ 1 µM	≤ 130%		COc1ccc(C2CC(c3ccc(NS(=O)(=O)c4ccc(Cl)cc4)cc3)=NN2C(C)=O)cc1 (racemic) [Compound 26A, N-(4-(1-Acetyl-5-(4-methoxyphenyl)-4,5-dihydro-1H-pyrazol-3-yl)phenyl)-4-chloro benzenesulfonamide]	> 20 µM	3 to 10 µM		
			COc1ccc(C2CC(c3ccc(NS(=O)(=O)c4cccc(OC)c4)cc3)=NN2C(C)=O)cc1 (single isomer, unassigned) [Compound 29A]	> 20 µM			
≤ 1 µM			CC(=O)N1N=C(c2ccc(NS(=O)(=O)c3ccc(F)cc3)cc2)CC1c1ccc(F)cc1 (single isomer, unassigned) [Compound 36A]	> 20 µM	3 to 10 µM		
			COc1ccc(C2CC(c3ccc(NS(=O)(=O)c4ccc(Cl)cc4)cc3)=NN2C(C)=O)cc1 (single isomer, unassigned) [Compound 37A]	> 20 µM			
			COc1ccc(C2CC(c3ccc(NS(=O)(=O)c4ccc(Cl)cc4)cc3)=NN2C(C)=O)cc1 (single isomer, unassigned) [Compound 38A]			> 20 µM	
≤ 1 µM		C (C: ≦130%)	COc1ccc(C2CC(c3ccc(NS(=O)(=O)c4ccc(OC)cc4)cc3)=NN2C(C)=O)cc1 (single isomer, unassigned) [Compound 39A]	> 20 µM			
≤ 1 µM		A (A: ≧200%)	COc1ccc(C2CC(c3ccc(NS(=O)(=O)c4ccc(OC)cc4)cc3)=NN2C(C)=O)cc1 (single isomer, unassigned) [Compound 40A]			> 20 µM	> 20 µM
≤ 1 µM	130 to 200%		COc1ccc(C2CC(c3ccc(NS(=O)(=O)c4ccc(C(F)(F)F)cc4)cc3)=NN2C(C)=O)cc1 (stereo not shown) [Compound 21A, N-(4-(1-Acetyl-5-(4-methoxyphenyl)-4,5-dihydro-1H-pyrazol-3-yl)phenyl)-4-(trifluoromethyl)benzenesulfonamide]	10 to 20 µM	3 to 10 µM		
			COc1ccc(C2CC(c3ccc(NS(=O)(=O)c4ccc(F)cc4)cc3)=NN2C(C)=O)cc1Cl (stereo not shown) [Compound 32A, N-(4-(1-Acetyl-5-(3-chloro-4-methoxyphenyl)-4,5-dihydro-1H-pyrazol-3-yl)phenyl)-4-fluorobenzenesulfonamide]	> 20 µM	3 to 10 µM		
≤ 1 µM	130 to 200%		COc1ccc(C2CC(c3ccc(NS(=O)(=O)c4cccc(F)c4)cc3)=NN2C(C)=O)cc1 (stereo not shown) [Compound 33A, N-(4-(1-Acetyl-5-(4-methoxyphenyl)-4,5-dihydro-1H-pyrazol-3-yl)phenyl)-3-fluoro benzenesulfonamide]	> 20 µM			
			COc1ccc(C2CC(c3ccc(NS(=O)(=O)c4cccc(C(F)(F)F)c4)cc3)=NN2C(C)=O)cc1 (stereo not shown) [Compound 34A, N-(4-(1-Acetyl-5-(4-methoxyphenyl)-4,5-dihydro-1H-pyrazol-3-yl)phenyl)-3-(trifluoromethyl)benzenesulfonamide]	> 20 µM	3 to 10 µM		
			CC(=O)N1N=C(c2ccc(NS(=O)(=O)c3ccc(F)cc3)cc2)C[C@@H]1c1ccc(C)cc1 [Compound 41A, (R)—N-(4-(1-Acetyl-5-(p-tolyl)-4,5-dihydro-1H-pyrazol-3-yl)phenyl)-4-fluorobenzene sulfonamide]	10 to 20 µM	3 to 10 µM		
			COc1cccc([C@H]2CC(c3ccc(NS(=O)(=O)c4ccc(F)cc4)cc3)=NN2C(C)=O)c1 [Compound 42A, (R)—N-(4-(1-Acetyl-5-(3-methoxyphenyl)-4,5-dihydro-1H-pyrazol-3-yl)phenyl)-4-fluoro benzenesulfonamide]		10 to 20 µM		
≤ 1 µM	≤ 130%		COc1ccc(S(=O)(=O)Nc2ccc(C3=NN(C(C)=O)C(c4ccc(F)cc4)C3)cc2)cc1 (stereo not shown) [Compound 45A]	> 20 µM	3 to 10 µM		
			COc1ccccc1C1CC(c2ccc(NS(=O)(=O)c3ccc(F)cc3)cc2)=NN1C(C)=O (stereo not shown) [Compound 47A, N-(4-(1-Acetyl-5-(2-methoxyphenyl)-4,5-dihydro-1H-pyrazol-3-yl)phenyl)-4-fluoro benzenesulfonamide]	> 20 µM	3 to 10 µM		
